What all share (assay): intrinsic protein fluorescence titration (ex […] nm, em […]-345 nm)
What all share (assay type): binding

Assay [1] deals with T1, human spermine synthase (SpmSyn) (Homo sapiens, UniProt P52788, G56S).
T1 construct: gene SMS; wild-type human SpmSyn expression construct of Wu et al. 2008; expressed in E. coli Rosetta 2, purified; homo-dimer
T1 sequence (P52788 2-366 G56S): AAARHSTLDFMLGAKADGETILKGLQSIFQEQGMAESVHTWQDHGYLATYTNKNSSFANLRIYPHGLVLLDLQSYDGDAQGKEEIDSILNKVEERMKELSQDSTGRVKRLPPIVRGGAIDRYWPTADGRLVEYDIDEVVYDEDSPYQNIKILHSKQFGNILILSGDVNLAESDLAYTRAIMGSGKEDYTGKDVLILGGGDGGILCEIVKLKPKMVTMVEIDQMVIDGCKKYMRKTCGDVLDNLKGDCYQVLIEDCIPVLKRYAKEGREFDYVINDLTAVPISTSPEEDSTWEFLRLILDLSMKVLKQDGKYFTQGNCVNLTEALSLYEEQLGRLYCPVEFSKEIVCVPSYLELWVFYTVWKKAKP

Assay [2] addresses T2, human spermine synthase (SpmSyn) (Homo sapiens, UniProt P52788).
T2 construct: gene SMS; wild-type human SpmSyn expression construct of Wu et al. 2008; expressed in E. coli Rosetta 2, purified; homo-dimer
T2 sequence (P52788 2-366): T1 sequence (P52788 2-366 G56S) with S55G

Assay [3] concerns the target T3, human spermine synthase (SpmSyn) (Homo sapiens, UniProt P52788, D201A).
T3 construct: gene SMS; wild-type human SpmSyn expression construct of Wu et al. 2008; expressed in E. coli Rosetta 2, purified; homo-dimer
T3 sequence (P52788 2-366 D201A): T1 sequence (P52788 2-366 G56S) with S55G, D200A

Data on one compound can be found in publication PMC6737077, “DFMD: Fast and Effective DelPhiForce Steered Molecular Dynamics Approach to Model Ligand Approach Toward a Receptor: Application to Spermine Synthase Enzyme” (Frontiers in Molecular Biosciences, 2019).

Changes are numbered by the printed parent chain.

Usually Kd stands for the free concentration of one partner at which half of the binding sites on the other are occupied at equilibrium, for simple one-to-one binding. Consider `C[S+](CC[C@H](N)C(=O)O)C[C@H]1O[C@@H](n2cnc3c(N)ncnc32)[C@H](O)[C@@H]1O` (stereo partly drawn) [AdoMet], for which the results for the dissociation constant (Kd) in assay [1], in assay [2] and in assay [3] were 410 ± 57 µM, 272 ± 24 µM and 1020 ± 69 µM, respectively.
